Data: patent US20060105045A1, “Cyclodextrin solubilizers for liquid and semi-solid formulations” (priority 2004, published 2006)
Structures can show the parent of a compound that is named as a salt.

Tests used:
[1] = Initial solubility screening of selected drugs in cyclodextrin derivative:water-miscible organic solvent stock solutions; assay type: physicochemical; settings: for grams of stock solution required to solubilize the drug, Stock #2 / grams of stock solution required to solubilize the drug, Stock #3 / grams of stock solution required to solubilize the drug, Stock #1 / grams of stock solution required to solubilize the drug, Stock #5 / grams of stock solution required to solubilize the drug, Stock #6 / grams of stock solution required to solubilize the drug, Stock #4 / grams of stock solution required to solubilize the drug, Stock #7: 20-22 mg drug, raloxifene HCl + ca. 100 mg water, tamoxifen citrate + ca. 40 mg water; for grams of stock solution required to solubilize the drug, Stock #2 / grams of stock solution required to solubilize the drug, Stock #3 / grams of stock solution required to solubilize the drug, Stock #1: HBenβCD5.0 (30 wt %); for grams of stock solution required to solubilize the drug, Stock #2 / grams of stock solution required to solubilize the drug, Stock #3: PEG 400 (66.2 wt %); for grams of stock solution required to solubilize the drug, Stock #2: EtOH (3.8 wt %); for grams of stock solution required to solubilize the drug, Stock #3: PG (3.8 wt %); for grams of stock solution required to solubilize the drug, Stock #1: PEG 400 (70 wt %); for grams of stock solution required to solubilize the drug, Stock #5 / grams of stock solution required to solubilize the drug, Stock #6 / grams of stock solution required to solubilize the drug, Stock #4: HBenβCD6.6 (32 wt %); for grams of stock solution required to solubilize the drug, Stock #5 / grams of stock solution required to solubilize the drug, Stock #6: PEG 400 (64.6 wt %); for grams of stock solution required to solubilize the drug, Stock #5 / grams of stock solution required to solubilize the drug, Stock #7: EtOH (3.4 wt %); for grams of stock solution required to solubilize the drug, Stock #6: PG (3.4 wt %); for grams of stock solution required to solubilize the drug, Stock #4: PEG 400 (68 wt %); for grams of stock solution required to solubilize the drug, Stock #7: SulfoHBenCD (29 wt %), PEG 400 (67.6 wt %); for amount of stock solutions in which the drug was soluble: after mixing for ca. 48 h, all stock solutions
Procedure: In the following experiments, the water-miscible solvents were dried as described in example 1. The hydroxybutenyl-β-cyclodextrins (HBenβCD6.6 and HBenβCD5.0) and the sulfonated hydroxybutenyl-β-cyclodextrins (MSsulfonate=0.3, MSbutentyl=4.4) were carefully dried prior to use. The following stock solutions were prepared:
2. HBenβCD5.0 (30 wt %), PEG 400 (66.2 wt %), and EtOH (3.8 wt %)
7. SulfoHBenCD (29 wt %), PEG 400 (67.6 wt %), and EtOH (3.4 wt %)
Various drugs (20-22 mg) were weighed into different glass vials with screw caps. To each vial was added 1 gram (g) ±0.02 g of stock solution. The vial contents were mixed for ca. 48 h. Vials were inspected visually to determine whether the drugs were dissolved.

[2] = Pharmacokinetic study, oral bioavailability of tamoxifen:HBenBCD complexes; assay type: in vivo, Sprague-Dawley rats; settings: male, Sprague-Dawley, rat, plasma, 10 mg/kg
Procedure: 7, 2005, concurrently with this application (no Serial assigned at this time). […] The solid complexes were dissolved in the appropriate amount of water for aqueous oral dosing of animals.
The study animal were male Sprague-Dawley rats. […] Each group was sub-divided into 4 groups of 3 animals on the basis of time of dosing (AM or PM) and diet (fed or fasted). In the case of fasted animals, food was removed 8 hours prior to dosing then returned 5 hours post-dose.
Blood samples (ca. 300 μL) were collected from each animal via the jugular or sublingual vein at 1, 2, 3, 4, 6, 12 and 24 hours post-dose. Plasma was separated and stored in 96 well plates at −17 to −80° C. until analysis. […] Plasma (100 μL) was precipitated with 250 μL of acetonitrile. After centrifugation, the supernatant was analyzed for tamoxifen, hydroxytamoxifen, and desmethyltamoxifen by reversed phase LC-MS-MS using diphenhydramine as an internal standard.
This oral suspension dose was given to fed animals in the AM.
The area under the plasma concentration-time curve (AUC) from time zero to 24 h (AUC0-24h) and from time zero to infinity (AUC0-∞) was calculated by standard methods (Clinical Pharmacokinetics, Malcolm Rowland and Thomas Tozer, Lippincott, Williams, & Wilkins, 1995). Oral bioavailability was determined using the AUC from the IV and oral doses adjusted for the animal dose.

grams of stock solution required to solubilize the drug, Stock #2 [1] [grams]	grams of stock solution required to solubilize the drug, Stock #3 [1] [grams]	grams of stock solution required to solubilize the drug, Stock #1 [1] [grams]	grams of stock solution required to solubilize the drug, Stock #5 [1] [grams]	grams of stock solution required to solubilize the drug, Stock #6 [1] [grams]	grams of stock solution required to solubilize the drug, Stock #4 [1] [grams]	grams of stock solution required to solubilize the drug, Stock #7 [1] [grams]	amount of stock solutions in which the drug was soluble [1] [g]	bioavailability [2] [%]	Compound
1.4	1.6	1.5	1.6	1.6	1.6	1.1			O=C(c1ccc(OCCN2CCCCC2)cc1)c1c(-c2ccc(O)cc2)sc2cc(O)ccc12 [Raloxifene HCL]
1.0	1.0	1.0	1.0	1.0	1.0	1.0	1		CC(C)(C#N)c1cc(Cn2cncn2)cc(C(C)(C)C#N)c1 [Anastrozole]
								5	CC/C(=C(\c1ccccc1)c1ccc(OCCN(C)C)cc1)c1ccccc1 [Tamoxifen]
1.0	1.0	1.0	1.0	1.0	1.0	1.0	1		CC(=O)O[C@H]1C(=O)[C@@]2(C)[C@H]([C@H](OC(=O)c3ccccc3)[C@]3(O)C[C@H](OC(=O)[C@H](O)[C@@H](NC(=O)c4ccccc4)c4ccccc4)C(C)=C1C3(C)C)[C@]1(OC(C)=O)CO[C@@H]1C[C@@H]2O [Paclitaxel]
1.5	1.5	1.5	1.5	1.5	1.5	1.5			C=C1C[C@@H]2[C@H](CC[C@]3(C)C(=O)CC[C@@H]23)[C@@]2(C)C=CC(=O)C=C12 [Exemestane]
